Consider one compound from patent publication US20110230481A2, “DERIVATIVES OF TETRABROMOBENZIMIDAZOLE, A PROCESS FOR THE PREPARATION THEREOF, A PHARMACEUTICAL COMPOSITION COMPRISING THE SAME, A METHOD OF USING THE SAME, A METHOD FOR MODULATING OR REGULATING SERINE/THREONINE KINASES, AND SERINE/THREONINE KINASES MODULATING AGENT” (SELVITA S.A., priority 2009, published 2011).

The subject of this assay is panel of 440 kinases. The assay is described as follows: KINOMEscan Max, whole panel. The class given is binding, human. The following applies: 1 μM. How it is done:
Kinase panel profiling was performed at Ambit Kinomescan (http://www.ambitbio.com/technology/) using the “KINOMEscan™ Max” assay platform, a high-throughput method for screening small molecule compounds against large numbers of human kinases. KINOMEscan™ is based on a competition binding assay that quantitatively measures the ability of a compound to compete with an immobilized, active-site directed ligand. The assay is performed by combining three components: DNA-tagged kinase; immobilized ligand; and a test compound. The ability of the test compound to compete with the immobilized ligand is measured via quantitative PCR of the DNA tag. For a description of Ambit's assay protocol, see Fabian et al. A small molecule-kinase interaction map for clinical kinase inhibitors. Nat. Biotechnol. 23, 329-336 (2005).
Selectivity of kinase inhibition is one of the key parameters in therapeutic use of this class of compounds. Off-target inhibition could be one of the major safety and toxicity issues in drug development and use of the compounds for treatment of various disease conditions. For this reason, development of selective kinase inhibitors is desired, to limit possible adverse effects. Therefore compounds disclosed in the application were tested on a panel of 440 kinases to determine specificity in PIM kinase inhibition. Table 5 provides selectivity data for representative compound N-(3-aminopropyl)-4,5,6,7-tetrabromo-1H-benzo[d]imidazol-2-amine (compound 11). As indicated in the Table 5 when tested at 1 μM concentration N-(3-aminopropyl)-4,5,6,7-tetrabromo-1H-benzo[d]imidazol-2-amine inhibited substrate biding of only 12 kinases (2% of the whole panel)>90%, whereas for over 93% of the tested kinases in the panel, substrate binding was basically not affected by compound 11. Pim kinases, but also HIPK, DYRK and CLK kinases and FTL3 mutants were identified as the primary targets for inhibition by compound 11 and selectivity for Pim kinases over other kinases was further confirmed in radiometric kinase assays.

Regarding `NCCCNc1nc2c(Br)c(Br)c(Br)c(Br)c2[nH]1` [Compound 11, N-(3-aminopropyl)-4,5,6,7-tetrabromo-1H-benzo[d]imidazol-2-amine], the “number of kinases with substrate binding inhibited >90%” value came out at 12, the “share of tested kinases with substrate binding basically not affected” value is “over 93%” and the “share of the whole panel with substrate binding inhibited >90%” value worked out at 2%.
